Structures can show the parent of a compound that is named as a salt. Where two headings read alike, the source gives them in different places.

We go through ten molecules from patent US10004701B2, “Methods and compositions for treating infection” (UNIVERSITY OF ROCHESTER, priority 2012, dated 2018).

Common to all, as to test: AK assay 384-well format, Prestwick library screening
One test deals with P. aeruginosa. Type of test: cell-based, Pseudomonas aeruginosa. The conditions noted are these: 50 μM final drug concentration; for fold induction at 50 µM: Pseudomonas aeruginosa, 3 h.
Another test concerns K. pneumoniae. The class given is cell-based, Klebsiella pneumoniae. To be noted: 50 μM final drug concentration; for fold induction at 50 µM: Klebsiella pneumoniae, 3 h.
Another test deals with E. cloacae. The class given is cell-based, Enterobacter cloacae. The conditions noted are these: 50 μM final drug concentration; for fold induction at 50 µM: Enterobacter cloacae, 3 h.
The test system of a further test is E. coli. Type of test: cell-based, Escherichia coli. To be noted: 50 μM final drug concentration; for fold induction at 50 µM: Escherichia coli, 3 h.
Test [1] relates to A. baumannii strain 98-37-09. The class given is cell-based, Acinetobacter baumannii. To be noted: 50 μM final drug concentration; for fold induction at 50 µM: Acinetobacter baumannii, 983709, 3 h.
Test [2] deals with S. aureus strain USA300-0114. The class given is cell-based, Staphylococcus aureus. To be noted: 50 μM final drug concentration; for fold induction at 50 µM: Staphylococcus aureus, USA300, 3 h.
For a further test, the system named is E. faecium. Type of test: cell-based, Enterococcus faecium. The conditions noted are these: 50 μM final drug concentration; for fold induction at 50 µM: Enterococcus faecium, 3 h.
Where [3] appears, read: planktonic P. aeruginosa, 384-well, cutoff for positive-scoring molecules 3-fold increase, read-out: AK-based Prestwick Library Screening Results: P. aeruginosa (increase in extracellular AK activity).
Setting [4] is: planktonic K. pneumoniae, 384-well, cutoff for positive-scoring molecules 3-fold increase, read-out: AK-based Prestwick Library Screening Results: K. pneumoniae (increase in extracellular AK activity).
[5] abbreviates: planktonic E. cloacae, 384-well, cutoff for positive-scoring molecules 3-fold increase, read-out: AK-based Prestwick Library Screening Results: E. cloacae (increase in extracellular AK activity).
The mark [6] stands for this setting: planktonic E. coli, 384-well, cutoff for positive-scoring molecules 3-fold increase, read-out: AK-based Prestwick Library Screening Results: E. coli (increase in extracellular AK activity).
Where [7] appears, read: planktonic A. baumannii, 384-well, cutoff for positive-scoring molecules 3-fold increase, read-out: AK-based Prestwick Library Screening Results: A. baumannii (increase in extracellular AK activity).
Setting [8] is: planktonic S. aureus, 384-well, cutoff for positive-scoring molecules 3-fold increase, read-out: AK-based Prestwick Library Screening Results: S. aureus (increase in extracellular AK activity).
Setting [9] is: planktonic E. faecium, 384-well, cutoff for positive-scoring molecules 3-fold increase, read-out: AK-based Prestwick Library Screening Results: E. faecium (increase in extracellular AK activity).
Where [10] appears, read: 384-well format, cutoff for positive-scoring molecules 3-fold increase, read-out: AK-based Prestwick Library Screening Results, P. aeruginosa (increase in extracellular AK activity).
The mark [11] stands for this setting: 384-well format, cutoff for positive-scoring molecules 3-fold increase, read-out: AK-based Prestwick Library Screening Results, K. pneumoniae (increase in extracellular AK activity).
Setting [12] is: 384-well format, cutoff for positive-scoring molecules 3-fold increase, read-out: AK-based Prestwick Library Screening Results, E. cloacae (increase in extracellular AK activity).
Where [13] appears, read: 384-well format, cutoff for positive-scoring molecules 3-fold increase, read-out: AK-based Prestwick Library Screening Results, E. coli (increase in extracellular AK activity).
Setting [14] is: 384-well format, cutoff for positive-scoring molecules 3-fold increase, read-out: AK-based Prestwick Library Screening Results, A. baumannii (increase in extracellular AK activity).
Where [15] appears, read: 384-well format, cutoff for positive-scoring molecules 3-fold increase, read-out: AK-based Prestwick Library Screening Results, S. aureus (increase in extracellular AK activity).
[16] abbreviates: 384-well format, cutoff for positive-scoring molecules 3-fold increase, read-out: AK-based Prestwick Library Screening Results, E. faecium (increase in extracellular AK activity).
Setting [17] is: planktonic, cutoff for positive 3-fold increase, read-out: AK-based Prestwick Library Screening Results, P. aeruginosa (fold increase in extracellular AK activity).
Where [18] appears, read: planktonic, cutoff for positive 3-fold increase, read-out: AK-based Prestwick Library Screening Results, K. pneumoniae (fold increase in extracellular AK activity).
The mark [19] stands for this setting: planktonic, cutoff for positive 3-fold increase, read-out: AK-based Prestwick Library Screening Results, E. cloacae (fold increase in extracellular AK activity).
[20] abbreviates: planktonic, cutoff for positive 3-fold increase, read-out: AK-based Prestwick Library Screening Results, A. baumannii (fold increase in extracellular AK activity).
[21] abbreviates: planktonic, cutoff for positive 3-fold increase, read-out: AK-based Prestwick Library Screening Results, S. aureus (fold increase in extracellular AK activity).
[22] abbreviates: planktonic, cutoff for positive 3-fold increase, read-out: AK-based Prestwick Library Screening Results, E. faecium (fold increase in extracellular AK activity).
Where [23] appears, read: cutoff for positive-scoring molecules 3-fold increase.

In the case of `C[N+]1(C)CCC(=C(c2ccccc2)c2ccccc2)CC1` [Diphemanil methylsulfate], the fold induction at 50 µM in the test with P. aeruginosa (planktonic P. aeruginosa, 384-well, […], read-out: AK-based Prestwick Library Screening Results: P. aeruginosa (increase in extracellular AK activity)) amounted to 1; in the test on K. pneumoniae (planktonic K. pneumoniae, 384-well, […], read-out: AK-based Prestwick Library Screening Results: K. pneumoniae (increase in extracellular AK activity)), 1.1; in the test with E. cloacae (planktonic E. cloacae, 384-well, […], read-out: AK-based Prestwick Library Screening Results: E. cloacae (increase in extracellular AK activity)) it was 1.6; in the test with E. coli (planktonic E. coli, 384-well, […], read-out: AK-based Prestwick Library Screening Results: E. coli (increase in extracellular AK activity)) it was 1.2; in test [1] (planktonic A. baumannii, 384-well, […], read-out: AK-based Prestwick Library Screening Results: A. baumannii (increase in extracellular AK activity)), 1.3; in test [2] (planktonic S. aureus, 384-well, […], read-out: AK-based Prestwick Library Screening Results: S. aureus (increase in extracellular AK activity)), 1.5. The fold induction at 50 µM in the test on E. faecium (planktonic E. faecium, 384-well, […], read-out: AK-based Prestwick Library Screening Results: E. faecium (increase in extracellular AK activity)) worked out at 1.1.

Turning to `CN(C)CCOC(c1ccccc1)c1ccccc1` [Diphenhydramine hydrochloride], the fold induction at 50 µM in the test on P. aeruginosa (setting [3]) was found to be 1; in the test on K. pneumoniae (setting [4]) it was 1; with E. cloacae (setting [5]), 1.4; in the test with E. coli (setting [6]), 1.3; in test [1] (setting [7]) it was 1.3; in test [2] (setting [8]), 1.1. In addition, the fold induction at 50 µM in the test on E. faecium (setting [9]) stood at 0.9.

For `OC(CCCN1CCCCC1)(c1ccccc1)c1ccccc1` [Diphenidol hydrochloride], the fold induction at 50 µM in the test on P. aeruginosa (setting [10]) came out at 0.8; with K. pneumoniae (setting [11]) it was 0.7; with E. cloacae (setting [12]), 0.8; in the test with E. coli (setting [13]) it was 0.8; in test [1] (setting [14]), 0.7; in test [2] (setting [15]), 0.7. Further, the fold induction at 50 µM in the test with E. faecium (setting [16]) worked out at 1.

Turning to `CN1CCC(OC(c2ccccc2)c2ccccc2)CC1` [Diphenylpyraline hydrochloride], the fold induction at 50 µM in the test with P. aeruginosa (cutoff for positive-scoring molecules 3-fold increase, read-out: AK-based Prestwick Library Screening Results, P. aeruginosa (fold increase in extracellular AK activity)) was found to be 1.1; with K. pneumoniae (cutoff for positive-scoring molecules 3-fold increase, read-out: AK-based Prestwick Library Screening Results, K. pneumoniae (fold increase in extracellular AK activity)), 1; with E. cloacae (cutoff for positive-scoring molecules 3-fold increase, read-out: AK-based Prestwick Library Screening Results, E. cloacae (fold increase in extracellular AK activity)) it was 1.4; with E. coli (cutoff for positive-scoring molecules 3-fold increase, read-out: AK-based Prestwick Library Screening Results, E. coli (fold increase in extracellular AK activity)) it was 1.3; in test [1] (cutoff for positive-scoring molecules 3-fold increase, read-out: AK-based Prestwick Library Screening Results, A. baumannii (fold increase in extracellular AK activity)) it was 1.3; in test [2] (cutoff for positive-scoring molecules 3-fold increase, read-out: AK-based Prestwick Library Screening Results, S. aureus (fold increase in extracellular AK activity)) it was 1.2. In addition, the fold induction at 50 µM in the test with E. faecium (cutoff for positive-scoring molecules 3-fold increase, read-out: AK-based Prestwick Library Screening Results, E. faecium (fold increase in extracellular AK activity)) turned out to be 1.1.

Turning to `CNCC(O)c1ccc(OC(=O)C(C)(C)C)c(OC(=O)C(C)(C)C)c1` (stereo not shown) [Dipivefrin hydrochloride], the fold induction at 50 µM with P. aeruginosa (setting [17]) is 1.3; with K. pneumoniae (setting [18]), 1.3; in the test with E. cloacae (setting [19]), 1.6; in the test on E. coli (planktonic, […], read-out: AK-based Prestwick Library Screening Results, E. coli (fold increase in extracellular AK activity)), 1.4; in test [1] (setting [20]) it was 1.4; in test [2] (setting [21]), 1.2. Further, the fold induction at 50 µM in the test with E. faecium (setting [22]) is 1.

As to `Cn1c(=O)c2c(ncn2CC(O)CO)n(C)c1=O` (stereo not shown) [Diprophylline], the fold induction at 50 µM with P. aeruginosa (setting [10]) came out at 0.7; with K. pneumoniae (setting [11]) it was 0.6; in the test with E. cloacae (setting [12]), 1.1; in the test with E. coli (setting [13]), 1; in test [1] (setting [14]), 0.8; in test [2] (setting [15]), 0.7. Also, the fold induction at 50 µM in the test on E. faecium (setting [16]) is 0.9.

In the case of `OCCN(CCO)c1nc(N2CCCCC2)c2nc(N(CCO)CCO)nc(N3CCCCC3)c2n1` [Dipyridamole], the fold induction at 50 µM was determined as 1.1 with P. aeruginosa (setting [3]); 0.9 in the test on K. pneumoniae (setting [4]); 1.4 in the test with E. cloacae (setting [5]); 1.3 in the test with E. coli (setting [6]); 1.2 in test [1] (setting [7]); 0.8 in test [2] (setting [8]). For the same molecule, the fold induction at 50 µM with E. faecium (setting [9]) worked out at 0.9.

As to `Cc1c(N(C)CS(=O)(=O)[O-])c(=O)n(-c2ccccc2)n1C.[Na+]` [Dipyrone], in the test on P. aeruginosa (setting [23]), the “AK-based Prestwick Library Screening Results, P. aeruginosa (fold increase in extracellular AK activity)” value was determined as 1.1. Also, in the test with K. pneumoniae (setting [23]), the “AK-based Prestwick Library Screening Results, K. pneumoniae (fold increase in extracellular AK activity)” value was determined as 1.1. Also, in the test on E. cloacae (setting [23]), the “AK-based Prestwick Library Screening Results, E. cloacae (fold increase in extracellular AK activity)” value worked out at 1.4. Also, the “AK-based Prestwick Library Screening Results, E. coli (fold increase in extracellular AK activity)” value in the test with E. coli (setting [23]) was 1.1. In addition, in test [1] (setting [23]), the “AK-based Prestwick Library Screening Results, A. baumannii (fold increase in extracellular AK activity)” value was 1.1. In test [2] (setting [23]), the “AK-based Prestwick Library Screening Results, S. aureus (fold increase in extracellular AK activity)” value was 1.4. For the same molecule, the “AK-based Prestwick Library Screening Results, E. faecium (fold increase in extracellular AK activity)” value with E. faecium (setting [23]) is on record as 1.0.

On to `CC[C@H]1OC(=O)[C@H](C)[C@@H](O[C@H]2C[C@@](C)(OC)[C@@H](O)[C@H](C)O2)[C@H](C)[C@@H](O[C@@H]2O[C@H](C)C[C@H](N(C)C)[C@H]2O)[C@](C)(O)C[C@@H](C)[C@@H]2N[C@@H](COCCOC)O[C@H]([C@H]2C)[C@]1(C)O` [Dirithromycin], for which the fold induction at 50 µM in the test on P. aeruginosa (setting [17]) is 0.9; in the test with K. pneumoniae (setting [18]) it was 1.2; in the test on E. cloacae (setting [19]) it was 1.5; in the test on E. coli (planktonic, cutoff for positive 3-fold increase, read-out: AK-based Prestwick Library Screening Results, E. coli (fold increase in extracellular AK activity)), 1.1; in test [1] (setting [20]), 1.8; in test [2] (setting [21]) it was 2.1. The fold induction at 50 µM with E. faecium (setting [22]) was 1.2.

As to `CC(C)N(CCC(C(N)=O)(c1ccccc1)c1ccccn1)C(C)C` (stereo not shown) [Disopyramide], the fold induction at 50 µM was 0.9 in the test on P. aeruginosa (setting [10]); 0.6 in the test with K. pneumoniae (setting [11]); 1 in the test on E. cloacae (setting [12]); 0.9 in the test on E. coli (setting [13]); 0.9 in test [1] (setting [14]); 2.7 in test [2] (setting [15]). Further, the fold induction at 50 µM with E. faecium (setting [16]) came out at 0.9.
